Experimental data reported in patent EP0202661B1, “Isolation of castanospermine and its use as an antidiabetic agent” (MERRELL DOW PHARMACEUTICALS INC., priority 1985, dated 1986).

What was measured:
[1] = tested on: Sucrose-Administered Mice; assay: Inhibitory action against increase of blood glucose in sucrose-administered mice; assay type: in vivo, Male ICR-swiss mice; settings: for Blood Glucose Concentration (mg%) at 30 Min. After Sucrose: fasted mice, sucrose control (0 mg/kg) 205, blank 107
Procedure: Inhibitory Action Against Increase of Blood Glucose in Sucrose-Administered Mice
Male ICR-swiss mice with body weight of 25-35 g were fasted overnight. Sucrose was administered orally by gavage at a dose of 2 g/kg 15 minutes after the similar administration of castanospermine at doses of 0.125 to 60 mg/kg. Animals were sacrificed at 30 minutes after sucrose administration and blood glucose levels were measured by a method using glucose dehydrogenase. […]

[2] = tested on: Starch-Administrated Mice; assay: Inhibitory action against increase of blood glucose in starch-administered mice; assay type: in vivo, Male ICR-Swiss mice; settings: for Blood Glucose Concentration (mg%) at 45 min. After Starch: fasted mice, starch control (0 mg/kg) 126, blank 72
Procedure: Inhibitory Action Against Increase of Blood Glucose in Starch-Administrated Mice
Male ICR-Swiss mice with body weight of 25-35 g were fasted overnight. Starch was administered orally by gavage at a dose of 1 g/kg 15 minutes after the similar administration of castanospermine at doses of 1.9 to 60 mg/kg. Animals were sacrificed at 45 minutes after starch administration and blood glucose levels were measured by a method using glucose dehydrogenase. […]

[3] = tested on: intestinal glycosidases (i.e., maltase and sucrase); settings: rats, cited from earlier work

Compound: O[C@H]1[C@H](O)[C@@H](O)CN2CC[C@H](O)[C@H]12 [Castanospermine, (1S,6S,7R,8R,8aR)-1,6,7,8-tetrahydroxyindolizidine]
- minimal effective dose ([1]; Mus musculus, 0.5 h, oral gavage 15 min before sucrose 2 g/kg, blood glucose 30 min after sucrose, read-out: dose at which the increase in glucose in the blood could be significantly inhibited): ≥ 0.125 mg/kg
- Blood Glucose Concentration (mg%) at 30 Min. After Sucrose ([1]; castanospermine 0.125 mg/kg oral gavage 15 min before sucrose 2 g/kg): 159 mg%
- Blood Glucose Concentration (mg%) at 30 Min. After Sucrose ([1]; castanospermine 0.25 mg/kg oral gavage 15 min before sucrose 2 g/kg): 167 mg%
- Blood Glucose Concentration (mg%) at 30 Min. After Sucrose ([1]; castanospermine 0.5 mg/kg oral gavage 15 min before sucrose 2 g/kg): 153 mg%
- Blood Glucose Concentration (mg%) at 30 Min. After Sucrose ([1]; castanospermine 1.0 mg/kg oral gavage 15 min before sucrose 2 g/kg): 146 mg%
- Blood Glucose Concentration (mg%) at 30 Min. After Sucrose ([1]; castanospermine 2.0 mg/kg oral gavage 15 min before sucrose 2 g/kg): 116 mg%
- minimal effective dose ([2]; Mus musculus, 0.75 h, oral gavage 15 min before starch 1 g/kg, blood glucose 45 min after starch, read-out: dose at which the increase in glucose in the blood could be significantly inhibited): ≥ 3.8 mg/kg
- Blood Glucose Concentration (mg%) at 45 min. After Starch ([2]; castanospermine 1.9 mg/kg oral gavage 15 min before starch 1 g/kg): 139 mg%
- Blood Glucose Concentration (mg%) at 45 min. After Starch ([2]; castanospermine 3.8 mg/kg oral gavage 15 min before starch 1 g/kg): 83 mg%
- Blood Glucose Concentration (mg%) at 45 min. After Starch ([2]; castanospermine 7.5 mg/kg oral gavage 15 min before starch 1 g/kg): 85 mg%
- inhibition of intestinal glycosidases (i.e., maltase and sucrase) ([3]; administered by injection, Saul et al., Proc. Nat'l. Acad. Sci. USA, 82, 93 (1985)): inhibits intestinal glycosidases
- adverse observations at high doses ([3]; high doses administered by injection, Saul et al. (1985)): diarrhea and high levels of intestinal bacterial flora were observed
